From PMC3440086, “Profiling Environmental Chemicals for Activity in the Antioxidant Response Element Signaling Pathway Using a High Throughput Screening Approach” (Environmental Health Perspectives, 2012)
Entries after “also recorded” stand apart in the source; their conditions may differ. Read-outs that look alike come from different tables or passages of the source.

Experiments:
[1] = tested on: mutated ARE; assay type: cell-based
[2] = tested on: Nrf2-dependent ARE transcriptional activity; experiment: ARE-luc luciferase reporter gene assay in HepG2 cells (qHTS); assay type: cell-based; set-up: Emax: reference not given here; details: for EC50 / Emax: Homo sapiens; for EC50: read-out: ARE-luc EC50
[3] = tested on: mitogen-activated protein kinase (MAPK) pathway; details: cited from earlier work
[4] = tested on: antioxidant response element (ARE) signaling pathway; experiment: ARE-bla β-lactamase reporter gene assay in HepG2 cells (qHTS); assay type: cell-based, human; details: for EC50 / Emax: Homo sapiens; for EC50: read-out: ARE-bla EC50
[5] = tested on: olfactory mucosa; set-up: method as in Genter et al. 2002; details: olfactory mucosa of treated rats; ref Genter et al. 2002; cited from earlier work
[6] = tested on: ROS; set-up: method as in Chen et al. 2009; details: cell-based testing; ref Chen et al. 2009; cited from earlier work
[7] = tested on: hypoxia-inducible factor 1; set-up: method as in Xia et al. 2009; details: β-lactamase reporter gene assay; ref Xia et al. 2009; cited from earlier work
[8] = HepG2, confirmation/follow-up studies, activation of ARE reporter as % of positive control (β-napthoflavone), read-out: ARE-luc Efficacy
[9] = confirmation/follow-up studies, HepG2, 16 hr exposure, mean ± SD
[10] = HepG2, confirmation/follow-up studies, activation of ARE reporter as % of positive control (β-napthoflavone), read-out: ARE-bla Efficacy
[11] = follow-up studies, up to 46 µM, listed as iodochlorohydroxyquinoline

Oc1cccc2cccnc12 [8-Hydroxyquinoline]
ARE-bla mutant IC50 [1]: inactive
activity in ARE-luc assay (words) [2]: active; also recorded: demonstrated activity
EC50 ([2]; HepG2, 16 h): 10.1 ± 3.9 µM
Emax ([2]; HepG2, read-out: ARE-luc Efficacy): 200%
induction of MAPK pathway [3]: shown to induce
activity in ARE-bla assay (words) [4]: active; also recorded: demonstrated activity
EC50 ([4]; HepG2, 16 h): 16.1 ± 5.1 µM
Emax ([4]; HepG2, read-out: ARE-bla Efficacy): 53%

CCc1cccc(CC)c1N(COC)C(=O)CCl [Alachlor]
ARE-bla mutant IC50 ([1]; confirmation/follow-up studies, HepG2, mean ± SD): inactive
Emax [2, 8]: 127%
EC50 [2, 9]: 19.9 ± 7.1 µM
activity in ARE-luc assay (words) ([2]; follow-up studies, up to 46 µM): active; also recorded: demonstrated activity
genes associated with the generation of ROS and resulting oxidative damage [5]: up-regulation
Emax [4, 10]: 106%
EC50 [4, 9]: 5.9 ± 1.7 µM
activity in ARE-bla assay (words) ([4]; follow-up studies, up to 46 µM): active; also recorded: demonstrated activity

Oc1c(I)cc(Cl)c2cccnc12 [Iodochlorohydroxyquinoline]
ARE-bla mutant Efficacy ([1]; confirmation/follow-up studies, normalized to DMSO (0%) and ARE-bla maximal β-napthoflavone response (100%)): 21%
activity in ARE-bla-mut assay (words) [1, 11]: may exhibit autofluorescence; also recorded: active; also recorded: demonstrated activity
Emax [2, 8]: 147%
EC50 [2, 9]: 10 ± 1.2 µM
activity in ARE-luc assay (words) ([2]; follow-up studies, up to 46 µM): active
activity in ARE-luc assay (words) [2, 11]: demonstrated activity
generation of ROS [6]: confirmed
Emax [4, 10]: 41%
EC50 [4, 9]: 17.2 ± 6 µM
activity in ARE-bla assay (words) ([4]; follow-up studies, up to 46 µM): active
activity in ARE-bla assay (words) [4, 11]: demonstrated activity
activation of hypoxia-inducible factor 1 [7]: activate
